Test results published in US6410581B1, “Disubstituted biphenyloxazolines” (Bayer Aktiengesellschaft, priority 1997, dated 2002).

assay: log p, n-octanol/water partition coefficient by reverse phase HPLC (H2O/CH3CN); type: physicochemical; conditions: n-octanol/water, pH 2.3

Row | SMILES | chromatographic logP
1 | CCc1cc(-c2ccccc2)ccc1OC(C)=O [4-acetoxy-3-ethyl-biphenyl] | 3.92
2 | CCCc1cc(-c2ccccc2)ccc1OC(C)=O [4-acetoxy-3-propyl-biphenyl] | 4.32
3 | CCOC(=O)Oc1ccc(-c2ccccc2)cc1Cl [(2-Chloro-4-phenyl-phenyl) ethyl carbonate] | 4.16
4 | CCOC(=O)Oc1ccc(-c2ccccc2)cc1C [(2-Methyl-4-phenyl-phenyl) ethyl carbonate] | 4.04
5 | CCCc1cc(-c2ccccc2)ccc1OC(=O)OCC [(4-phenyl-2-propyl-phenyl) ethyl carbonate] | 4.76

same assay, conditions: n-octanol/water, pH 7.5

Row | SMILES | chromatographic logP
6 | CCOC(=O)Oc1c(Cl)cc(-c2ccccc2)cc1Cl [(2,6-dichloro-4-phenyl-phenyl) ethyl carbonate] | 4.65

same assay, conditions: pH 7.5

Row | SMILES | log p
7 | CCC(C)Oc1ccc(-c2ccc(C3COC(c4c(F)cccc4F)=N3)cc2)cc1C (centres unmarked) [Example I-7] | log p*: 5.60 (pH = 7.5)
8 | CCCc1cc(-c2ccc(C3COC(c4ccccc4C)=N3)cc2)ccc1OC(C)CC (centres unmarked) [Example I-9] | log p: 7.28 (pH = 7.5)
9 | CCCc1cc(-c2ccc(C3COC(c4c(F)cccc4F)=N3)cc2)ccc1OC(C)CC (centres unmarked) [Example I-10] | log p: 6.33 (pH = 7.5)
10 | Cc1cc(-c2ccc(C3COC(c4ccccc4Cl)=N3)cc2)ccc1OC(C)C (centres unmarked) [Example I-12] | log p: 5.56 (pH = 7.5)
11 | Cc1cc(-c2ccc(C3COC(c4ccccc4Br)=N3)cc2)ccc1OC(C)C (centres unmarked) [Example I-14] | log p: 5.63 (pH = 7.5)
12 | CCC(C)Oc1ccc(-c2ccc(C3COC(c4ccccc4Br)=N3)cc2)cc1C (centres unmarked) [Example I-16] | log p: 6.12 (pH = 7.5)
13 | CC(C)Oc1ccc(-c2ccc(C3COC(c4ccccc4F)=N3)cc2)cc1Cl (centres unmarked) [Example I-32] | log p (pH 7.5): 5.04
14 | CC(C)COc1ccc(-c2ccc(C3COC(c4ccccc4Cl)=N3)cc2)cc1Cl (centres unmarked) [Example I-34] | log p (pH 7.5): 6.03
15 | CCCc1cc(-c2ccc(C3COC(c4ccccc4Cl)=N3)cc2)ccc1OC(C)C (centres unmarked) [Example I-36] | log p: 6.35 (pH 7.5)
16 | CCCc1cc(-c2ccc(C3COC(c4ccccc4Cl)=N3)cc2)ccc1OCC(C)C (centres unmarked) [Example I-37] | log p: 6.95 (pH 7.5)
17 | CCCc1cc(-c2ccc(C3COC(c4ccccc4Cl)=N3)cc2)ccc1OCC(C)O (centres unmarked) [Example I-39] | log p: 4.47 (pH 7.5)
18 | CCCc1cc(-c2ccc(C3COC(c4ccccc4Br)=N3)cc2)ccc1OC(C)C (centres unmarked) [Example I-40] | log p: 6.40 (pH 7.5)
19 | Cc1cc(-c2ccc(C3COC(c4c(F)cccc4F)=N3)cc2)cc(C)c1OC(C)C (centres unmarked) [Example I-44] | log p: 5.23 (pH 7.5)
20 | CCCc1cc(-c2ccc(C3COC(c4ccccc4C)=N3)cc2)ccc1OC(C)C (centres unmarked) [Example I-52] | log p: 6.78 (pH 7.5)
21 | C=CCOc1ccc(-c2ccc(C3COC(c4ccccc4C)=N3)cc2)cc1C (centres unmarked) [Example I-55] | log p: 5.64 (pH 7.5)
22 | CCCc1cc(-c2ccc(C3COC(c4ccccc4I)=N3)cc2)ccc1OC(C)C (centres unmarked) [Example I-57] | log p: 6.59 (pH 7.5)
23 | C=CCc1cc(-c2ccc(C3COC(c4c(F)cccc4F)=N3)cc2)ccc1OC(C)CC (centres unmarked) [Example I-59] | log p: 5.95 (pH 7.5)
24 | CCCc1cc(-c2ccc(C3COC(c4c(F)cccc4F)=N3)cc2)ccc1OCc1ccc(C(C)(C)C)cc1 (centres unmarked) [Example I-60] | log p: 7.14 (pH 7.5)
25 | CCc1cc(-c2ccc(C3COC(c4c(F)cccc4F)=N3)cc2)ccc1OC(C)C (centres unmarked) [Example I-63] | log p: 5.54 (pH 7.5)
26 | CCCc1cc(-c2ccc(C3COC(c4ccccc4C)=N3)cc2)ccc1OCC(C)C (centres unmarked) [Example I-64] | log p: 4.48 (pH 7.5)
27 | Cc1cc(-c2ccc(C3COC(c4ccccc4I)=N3)cc2)ccc1OC(C)C (centres unmarked) [Example I-67] | log p: 5.81 (pH 7.5)
28 | Cc1cc(-c2ccc(C3COC(c4ccccc4C)=N3)cc2)ccc1OC(C)C (centres unmarked) [Example I-70] | log p: 6.02 (pH 7.5)
29 | CC(C)Oc1ccc(-c2ccc(C3COC(c4c(F)cccc4Cl)=N3)cc2)cc1Cl (centres unmarked) [Example I-71] | log p: 5.25 (pH 7.5)

Row | SMILES | log p
30 | CCC(C)Oc1ccc(-c2ccc(C3COC(c4c(F)cccc4Cl)=N3)cc2)cc1Cl (centres unmarked) [Example I-76] | log p: 5.69 (pH 7.5)
31 | CC(C)COc1ccc(-c2ccc(C3COC(c4c(F)cccc4Cl)=N3)cc2)cc1Cl (centres unmarked) [Example I-77] | log p: 5.89 (pH 7.5)
32 | C=CCOc1ccc(-c2ccc(C3COC(c4c(F)cccc4Cl)=N3)cc2)cc1Cl (centres unmarked) [Example I-80] | log p: 4.99 (pH 7.5)
33 | CCCCCCOc1ccc(-c2ccc(C3COC(c4c(F)cccc4Cl)=N3)cc2)cc1Cl (centres unmarked) [Example I-83] | log p: 6.68 (pH 7.5)
34 | CCCc1cc(-c2ccc(C3COC(c4c(F)cccc4Cl)=N3)cc2)ccc1OC(C)C (centres unmarked) [Example I-85] | log p: 6.20 (pH 7.5)
35 | CCCc1cc(-c2ccc(C3COC(c4c(F)cccc4Cl)=N3)cc2)ccc1OC(C)CC (centres unmarked) [Example I-86] | log p: 6.62 (pH 7.5)
36 | CCCOc1ccc(-c2ccc(C3COC(c4ccccc4F)=N3)cc2)cc1Cl (centres unmarked) [Example I-87] | log p: 5.22 (pH 7.5)
37 | CCC(C)Oc1ccc(-c2ccc(C3COC(c4ccccc4F)=N3)cc2)cc1Cl (centres unmarked) [Example I-89] | log p: 5.49 (pH 7.5)
38 | CC(C)COc1ccc(-c2ccc(C3COC(c4ccccc4F)=N3)cc2)cc1Cl (centres unmarked) [Example I-90] | log p: 5.70 (pH 7.5)
39 | CCCCCCOc1ccc(-c2ccc(C3COC(c4ccccc4F)=N3)cc2)cc1Cl (centres unmarked) [Example I-96] | log p: 6.48 (pH 7.5)
40 | CCCc1cc(-c2ccc(C3COC(c4c(F)cccc4Cl)=N3)cc2)ccc1OCC(C)C (centres unmarked) [Example I-104] | log p: 6.82 (pH 7.5)
41 | C=CCc1cc(-c2ccc(C3COC(c4c(F)cccc4F)=N3)cc2)cc(CC=C)c1OC(C)CC (centres unmarked) [Example I-139] | log p: 6.39
42 | C=CCc1cc(-c2ccc(C3COC(c4ccccc4C)=N3)cc2)cc(Cl)c1OC(C)C (centres unmarked) [Example I-146] | log p: 6.75 (pH 7.5)
43 | C=CCOc1ccc(-c2ccc(C3COC(c4ccccc4C)=N3)cc2)cc1Cl (centres unmarked) [Example I-155] | log p: 5.47 (pH 7.5)
44 | C#CCOc1ccc(-c2ccc(C3COC(c4ccccc4C)=N3)cc2)cc1Cl (centres unmarked) [Example I-156] | log p: 4.81 (pH 7.5)
45 | Cc1cc(-c2ccc(C3COC(c4c(F)cccc4Cl)=N3)cc2)ccc1OC(C)C (centres unmarked) [Example I-163] | log p: 5.45
46 | CCC(C)Oc1ccc(-c2ccc(C3COC(c4c(F)cccc4Cl)=N3)cc2)cc1C (centres unmarked) [Example I-165] | log p: 5.93
47 | C=CCc1cc(-c2ccc(C3COC(c4c(F)cccc4Cl)=N3)cc2)ccc1OCCC (centres unmarked) [Example I-176] | log p: 5.98
48 | C=CCc1cc(-c2ccc(C3COC(c4c(F)cccc4Cl)=N3)cc2)ccc1OC(C)C (centres unmarked) [Example I-177] | log p: 5.82
49 | C=CCc1cc(-c2ccc(C3COC(c4c(F)cccc4Cl)=N3)cc2)ccc1OCC(C)C (centres unmarked) [Example I-178] | log p: 6.47
50 | C=CCc1cc(-c2ccc(C3COC(c4c(F)cccc4Cl)=N3)cc2)ccc1OC(C)CC (centres unmarked) [Example I-179] | log p: 6.33
51 | C=CCOc1ccc(-c2ccc(C3COC(c4c(F)cccc4Cl)=N3)cc2)cc1CC=C (centres unmarked) [Example I-181] | log p: 5.49
52 | C#CCOc1ccc(-c2ccc(C3COC(c4c(F)cccc4Cl)=N3)cc2)cc1CC=C (centres unmarked) [Example I-182] | log p: 4.81

Row | SMILES | log p
53 | Cc1cc(-c2ccc(C3COC(c4ccccc4F)=N3)cc2)ccc1OC(C)C (centres unmarked) [Example I-190] | log p: 5.23
54 | Cc1cc(-c2ccc(C3COC(c4ccccc4F)=N3)cc2)ccc1OCC(C)C (centres unmarked) [Example I-191] | log p: 5.89
55 | CCC(C)Oc1ccc(-c2ccc(C3COC(c4ccccc4F)=N3)cc2)cc1C (centres unmarked) [Example I-192] | log p: 5.70
56 | C#CC(C)Oc1ccc(-c2ccc(C3COC(c4ccccc4F)=N3)cc2)cc1C (centres unmarked) [Example I-196] | log p: 4.68
57 | CCCc1cc(-c2ccc(C3COC(c4ccccc4F)=N3)cc2)ccc1OC(C)C (centres unmarked) [Example I-202] | log p: 6.03
58 | CCCc1cc(-c2ccc(C3COC(c4ccccc4F)=N3)cc2)ccc1OCC(C)C (centres unmarked) [Example I-204] | log p: 6.61
59 | C#CC(C)Oc1ccc(-c2ccc(C3COC(c4ccccc4F)=N3)cc2)cc1CCC (centres unmarked) [Example I-209] | log p: 5.32
60 | CCCOc1ccc(-c2ccc(C3COC(c4ccccc4F)=N3)cc2)cc1Cl (centres unmarked) [Example I-216] | log p: 5.22
61 | CC(C)COc1ccc(-c2ccc(C3COC(c4ccccc4F)=N3)cc2)cc1Cl (centres unmarked) [Example I-217] | log p: 5.70
62 | CCC(C)Oc1ccc(-c2ccc(C3COC(c4ccccc4F)=N3)cc2)cc1Cl (centres unmarked) [Example I-218] | log p: 5.49
63 | CCCCCCOc1ccc(-c2ccc(C3COC(c4ccccc4F)=N3)cc2)cc1Cl (centres unmarked) [Example I-219] | log p: 6.48
64 | C#CCOc1ccc(-c2ccc(C3COC(c4ccccc4F)=N3)cc2)cc1Cl (centres unmarked) [Example I-221] | log p: 4.16
65 | C#CC(C)Oc1ccc(-c2ccc(C3COC(c4ccccc4F)=N3)cc2)cc1Cl (centres unmarked) [Example I-222] | log p: 4.58
66 | Cc1cc(-c2ccc(C3COC(c4ccccc4Cl)=N3)cc2)ccc1OC(C)C (centres unmarked) [Example I-229] | log p: 5.56
67 | CCCc1cc(-c2ccc(C3COC(c4ccccc4Cl)=N3)cc2)ccc1OC(C)C (centres unmarked) [Example I-240] | log p: 6.35
68 | C=CCc1cc(-c2ccc(C3COC(c4ccccc4Cl)=N3)cc2)ccc1OC(C)C (centres unmarked) [Example I-250] | log p: 5.93
69 | C=CCc1cc(-c2ccc(C3COC(c4ccccc4Cl)=N3)cc2)ccc1OCC(C)C (centres unmarked) [Example I-251] | log p: 6.52
70 | C=CCc1cc(-c2ccc(C3COC(c4ccccc4Br)=N3)cc2)cc(Cl)c1OC(C)C (centres unmarked) [Example I-281] | log p: 6.35
71 | C=CCc1cc(-c2ccc(C3COC(c4ccccc4Br)=N3)cc2)cc(Cl)c1OCCCCCC (centres unmarked) [Example I-282] | log p: 7.36
72 | C=CCOc1c(Cl)cc(-c2ccc(C3COC(c4ccccc4Br)=N3)cc2)cc1CC=C (centres unmarked) [Example I-283] | log p: 6.05
73 | C#CCOc1c(Cl)cc(-c2ccc(C3COC(c4ccccc4Br)=N3)cc2)cc1CC=C (centres unmarked) [Example I-284] | log p: 5.37

same assay, conditions: pH not given

Row | SMILES | log p
74 | CCCc1cc(-c2ccc(C3COC(c4ccccc4F)=N3)cc2)ccc1OC(C)CC (centres unmarked) [Example I-205] | log p: 6.47
